From article PMC6522510 (Nature Communications, 2019)
Like-named read-outs stand apart in the source and are kept apart here.

Assays:
U937 [1] = test: Secondary dose-response HTS, Cell Titer Glo; type: cell-based, human; settings: secondary high-throughput screen, U937; for EC50: read-out: average effective concentration, U937
MV4-11 [2] = test: cells; parameters: species or system AML cell lines (8); Secondary HTS, 10-point dose-response in triplicate, Cell Titer Glo viability, four-parameter fit EC50; settings: Homo sapiens, MV4-11, 72 h, read-out: MV4-11
CMS [3] = test: cells; parameters: species or system AML cell lines (8); Secondary HTS, 10-point dose-response in triplicate, Cell Titer Glo viability, four-parameter fit EC50; settings: 72 h, read-out: CMS
CHRF288-11 [4] = test: Secondary dose-response HTS, Cell Titer Glo; type: cell-based, human; settings: secondary high-throughput screen, CHRF288-11; for EC50: Homo sapiens, HTS, read-out: average effective concentration, CHRF288-11
M07e = test: Secondary dose-response HTS, Cell Titer Glo; type: cell-based, human; settings: secondary high-throughput screen; for EC50: read-out: average effective concentration, M07e
MOLM-13 [5] = test: cells; parameters: species or system AML cell lines (8); Secondary HTS, 10-point dose-response in triplicate, Cell Titer Glo viability, four-parameter fit EC50; settings: Homo sapiens, MOLM-13, 72 h, read-out: MOLM-13
CMK [6] = test: Secondary dose-response HTS, Cell Titer Glo; type: cell-based, human; settings: CMK; for EC50: read-out: average effective concentration, CMK
ML2 = test: Secondary dose-response HTS, Cell Titer Glo; type: cell-based, human; settings: secondary high-throughput screen, ML-2; for EC50: read-out: average effective concentration, ML-2
U937 [7] = test: cells; parameters: species or system AML cell lines (8); Secondary HTS, 10-point dose-response in triplicate, Cell Titer Glo viability, four-parameter fit EC50; settings: Homo sapiens, U-937, 72 h, read-out: U937
CMK [8] = test: cells; parameters: species or system AML cell lines (8); Secondary HTS, 10-point dose-response in triplicate, Cell Titer Glo viability, four-parameter fit EC50; settings: Homo sapiens, CMK, 72 h, read-out: CMK
MOLM-13 [9] = test: Secondary dose-response HTS, Cell Titer Glo; type: cell-based, human; settings: Homo sapiens; secondary high-throughput screen; MOLM-13; read-out: average effective concentration, MOLM-13
CMS [10] = test: Secondary dose-response HTS, Cell Titer Glo; type: cell-based, human; settings: secondary high-throughput screen, CMS; for EC50: read-out: average effective concentration, CMS
MV4-11 [11] = test: Secondary dose-response HTS, Cell Titer Glo; type: cell-based, human; settings: Homo sapiens; secondary high-throughput screen; MV4-11; read-out: average effective concentration, MV4-11
CHRF288-11 [12] = test: cells; parameters: species or system AML cell lines (8); Secondary HTS, 10-point dose-response in triplicate, Cell Titer Glo viability, four-parameter fit EC50; settings: 72 h, read-out: CHRF288-11
[13] = secondary high-throughput screen

EC50 (U937 [1]; Homo sapiens, U-937) | EC50 (MOLM-13 [9]) | Compound | EC50 (CMS [3]) | EC50 (CHRF288-11 [4]) | EC50 (M07e; Homo sapiens, M-07e, M07e) | EC50 (ML2; Homo sapiens) | average effective concentration, M07e (M07e; M07e) | average effective concentration, CMS (CMS [10]) | also measured
3.6 µM |  | Cn1ncnc1[C@H]1c2n[nH]c(=O)c3cc(F)cc(c23)N[C@@H]1c1ccc(F)cc1 [BMN 673] | > 10 µM | 0.074 µM | 9.2 µM | 0.079 µM |  |  | EC50 (MV4-11 [2]): > 10 µM; EC50 (MOLM-13 [5]): > 10 µM; EC50 (CMK [6]; Homo sapiens, secondary high-throughput screen): 0.21 µM
 |  | COC1=C2C[C@@H](C)C[C@H](OC)[C@H](O)[C@@H](C)/C=C(\C)[C@H](OC(N)=O)[C@@H](OC)/C=C\C=C(/C)C(=O)NC(=CC1=O)C2=O [GELDANOMYCIN] |  |  |  |  | Inactive | Inactive | average effective concentration, CHRF288-11 (CHRF288-11 [4]): Inactive; average effective concentration, CMK (CMK [6]; [13]): Inactive
 |  | COC(=O)[C@H](CC(C)C)NC(=O)c1ccc(NC[C@@H](N)CS)cc1-c1cccc2ccccc12 [GGTI 298] |  |  |  |  | Inactive | Inactive | average effective concentration, CHRF288-11 (CHRF288-11 [4]): Inactive; average effective concentration, CMK (CMK [6]; [13]): Inactive; average effective concentration, ML-2 (ML2): Inactive
10 µM | 2.5 µM | CCc1c2c(nc3ccc(OC(=O)N4CCC(N5CCCCC5)CC4)cc13)-c1cc3c(c(=O)n1C2)COC(=O)[C@]3(O)CC [IRINOTECAN] | > 10 µM | 4.5 µM | > 10 µM | 4 µM |  |  | EC50 (CMK [8]): > 10 µM; EC50 (MV4-11 [11]): 3.1 µM
 |  | CCc1c(O)cc(O)c(C(=O)c2ccc(OCCN3CCOCC3)c(OC)c2)c1CC(=O)N(CCOC)CCOC.Cl [KW-2478] |  |  |  |  | Inactive | Inactive | average effective concentration, U937 (U937 [1]): Inactive
6 µM | 0.007 µM | Cc1ccc(F)c(NC(=O)Nc2ccc(-c3cccc4[nH]nc(N)c34)cc2)c1 [LINIFANIB] | > 10 µM |  | > 10 µM | > 10 µM |  |  | EC50 (CHRF288-11 [12]): > 10 µM; EC50 (CMK [6]; Homo sapiens): 5.8 µM; EC50 (MV4-11 [11]): 0.003 µM
3 µM | 1.5 µM | COc1c(C)c2c(c(O)c1C/C=C(\C)CCC(=O)OCCN1CCOCC1)C(=O)OC2 [MYCOPHENOLATE MOFETIL] | > 10 µM | 2.9 µM | > 10 µM | 1.3 µM |  |  | EC50 (CMK [6]; Homo sapiens): 7.5 µM; EC50 (MV4-11 [11]): 1.9 µM
 |  | Oc1cccc(-c2nc(N3CCOCC3)c3oc4ncccc4c3n2)c1 [PIK 103] |  |  |  |  | Inactive | Inactive | average effective concentration, CHRF288-11 (CHRF288-11 [4]): Inactive; average effective concentration, ML-2 (ML2): Inactive
5.8 µM | 6 µM | O=C(CCCCCCC(=O)Nc1cccnc1)NO [PYROXAMIDE] | > 10 µM |  | 8.2 µM | > 10 µM |  |  | EC50 (CMK [8]): > 10 µM; EC50 (CHRF288-11 [12]): > 10 µM; EC50 (MV4-11 [11]): 1.6 µM
> 10 µM |  | C[S+]([O-])CCCCN=C=S (stereo not drawn) [SULFORAPHANE] |  | > 10 µM | > 10 µM | > 10 µM |  |  | EC50 (CMS [10]; Homo sapiens, HTS): > 10 µM
 |  | Cc1cc(C(C)Nc2ccccc2)c2nc(N3CCOCC3)cc(=O)n2c1 (stereo not drawn) [TGX-221] |  |  |  |  | Inactive | Inactive | average effective concentration, U937 (U937 [1]): Inactive; average effective concentration, CHRF288-11 (CHRF288-11 [4]): Inactive; average effective concentration, ML-2 (ML2): Inactive
 |  | EVODIAMINE |  |  |  |  |  |  | EC50 (U937 [1]): 2.1 µM; EC50 (M07e; […]): 4.4 µM; EC50 (CMS [10]): 1.5 µM; EC50 (CMK [6]; [13]): 0.3 µM; EC50 (ML2): 0.45 µM

Compound | EC50 (U937 [1]; Homo sapiens, U-937) | EC50 (MOLM-13 [9]) | EC50 (CMS [3]) | EC50 (CHRF288-11 [4]) | EC50 (M07e; Homo sapiens, M-07e, M07e) | EC50 (ML2; Homo sapiens) | average effective concentration, M07e (M07e; M07e) | average effective concentration, CMS (CMS [10]) | also measured
C=C(C)[C@@H](CC=C(C)C)C[C@@]12C[C@@H](CC=C(C)C)C(C)(C)[C@@](CC=C(C)C)(C(=O)C(C(=O)c3ccc(O)c(O)c3)=C1O)C2=O [GARCINOL] |  | 5.1 µM | > 10 µM | 5.8 µM |  | 5.4 µM |  |  | EC50 (U937 [7]): > 10 µM; EC50 (MV4-11 [2]): > 10 µM; EC50 (M07e; Homo sapiens, M-07e, […]): > 10 µM; EC50 (CMK [8]): > 10 µM
O=C(CCCCCCC(=O)Nc1ccc([C@H]2O[C@@H](CSc3nc(-c4ccccc4)c(-c4ccccc4)o3)C[C@@H](c3ccc(CO)cc3)O2)cc1)NO [TUBACIN] |  | > 10 µM | > 10 µM | > 10 µM |  | > 10 µM |  |  | EC50 (U937 [7]): > 10 µM; EC50 (MV4-11 [2]): > 10 µM; EC50 (M07e; Homo sapiens, M-07e, […]): 2.5 µM; EC50 (CMK [8]): > 10 µM
